From PubChem BioAssay AID248 (DTP/NCI, 2004)
Toxic doses and inconclusive results are not listed. Cut-off read from the data, not from the text of the source: active = T/C of 150% or more; inactive = T/C below 125%.

System: L1210 leukemia ip in BDF1 mice, survival T/C
Assay: NCI In Vivo Anticancer Drug Screen. Data for tumor model L1210 Leukemia (intraperitoneal) in B6D2F1 (BDF1) mice
Conditions: endpoint: mean survival time, higher = longer survival
Procedure, shortened: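 Ratio derived from survival: compound-dosed mice over vehicle-dosed mice, all bearing a transplantable tumor.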

[1] = dose: 100.0 mg/kg/injection, schedule: Q04DX003 (ip), vehicle: Klucel (hydroxypropylcellulose) (HPC)
[2] = dose: 200.0 mg/kg/injection, schedule: Q04DX003 (ip), vehicle: Klucel (hydroxypropylcellulose) (HPC)
[3] = dose: 400.0 mg/kg/injection, schedule: Q04DX003 (ip), vehicle: Klucel (hydroxypropylcellulose) (HPC)
[4] = dose: 50.0 mg/kg/injection, schedule: Q01DX001 (ip), vehicle: saline
[5] = dose: 100.0 mg/kg/injection, schedule: Q01DX001 (ip), vehicle: saline
[6] = dose: 200.0 mg/kg/injection, schedule: Q01DX001 (ip), vehicle: saline
[7] = dose: 400.0 mg/kg/injection, schedule: Q01DX001 (ip), vehicle: saline
[8] = dose: 400.0 mg/kg/injection, schedule: Q04DX003 (ip), vehicle: saline with Tween-80
[9] = dose: 100.0 mg/kg/injection, schedule: Q04DX002 (ip), vehicle: Klucel (hydroxypropylcellulose) (HPC)
[10] = dose: 200.0 mg/kg/injection, schedule: Q04DX002 (ip), vehicle: Klucel (hydroxypropylcellulose) (HPC)
[11] = dose: 100.0 mg/kg/injection, schedule: Q04DX003 (ip), vehicle: saline with Tween-80
[12] = dose: 200.0 mg/kg/injection, schedule: Q04DX003 (ip), vehicle: saline with Tween-80

Measured: T/C

CCS(=O)(=O)C(S(C)(=O)=O)S(=O)(=O)C(C)C (stereo not given)
inactive: [1] 92 % of control | [2] 96 % of control | [3] 89 % of control

[O]=[Sb]([OH])([OH])[c]1ccccc1
inactive: dose: 12.5 mg/kg/injection, schedule: Q04DX002 (ip), vehicle: saline with Tween-80 100 % of control | dose: 25.0 mg/kg/injection, schedule: Q04DX002 (ip), vehicle: saline with Tween-80 100 % of control | dose: 50.0 mg/kg/injection, schedule: Q01DX009 (sc), vehicle: olive oil, sesame oil, peanut oil 97 % of control | dose: 50.0 mg/kg/injection, schedule: Q04DX002 (ip), vehicle: saline with Tween-80 103 % of control | dose: 100.0 mg/kg/injection, schedule: Q01DX009 (sc), vehicle: olive oil, sesame oil, peanut oil 95 % of control | dose: 100.0 mg/kg/injection, schedule: Q04DX002 (ip), vehicle: saline with Tween-80 90 % of control | dose: 100.0 mg/kg/injection, schedule: Q04DX003 (sc), vehicle: olive oil, sesame oil, peanut oil 97 % of control | dose: 200.0 mg/kg/injection, schedule: Q04DX003 (sc), vehicle: olive oil, sesame oil, peanut oil 93 % of control

CC1CCN(C(CC(=O)c2ccccc2)C(=O)c2ccccc2)CC1 (stereo not given)
inactive: [4] 104 % of control | [5] 98 % of control | [6] 102 % of control | [7] 96 % of control

CCOC(=O)CN1C(=O)NC2(CCc3ccccc3C2)C1=O (stereo not given)
inactive: [8] 98 % of control

NC(=S)N=Nc1c(O)n(C2OC(CO)C(O)C(O)C2O)c2ccccc12 (stereo not given)
inactive: dose: 50.0 mg/kg/injection, schedule: Q01DX005 (ip), vehicle: saline 88 % of control | dose: 100.0 mg/kg/injection, schedule: Q01DX005 (ip), vehicle: saline 94 % of control

CCOC(=S)SCC(=O)c1ccc(Br)cc1
inactive: [9] 101 % of control | [10] 92 % of control | dose: 400.0 mg/kg/injection, schedule: Q04DX002 (ip), vehicle: Klucel (hydroxypropylcellulose) (HPC) 86 % of control

CCCCCCCCCCCCOCCC(=O)O
inactive: dose: 75.0 mg/kg/injection, schedule: Q01DX001 (ip), vehicle: saline 100 % of control | dose: 150.0 mg/kg/injection, schedule: Q01DX001 (ip), vehicle: saline 94 % of control | dose: 300.0 mg/kg/injection, schedule: Q01DX001 (ip), vehicle: saline 94 % of control

C[N+](C)(C)C1=CC=CC=C1.Br[Br-]Br
inactive: dose: 12.5 mg/kg/injection, schedule: Q01DX009 (ip), vehicle: other 98 % of control | dose: 12.5 mg/kg/injection, schedule: Q04DX003 (ip), vehicle: Klucel (hydroxypropylcellulose) (HPC) 102 % of control | dose: 25.0 mg/kg/injection, schedule: Q01DX009 (ip), vehicle: other 98 % of control | dose: 25.0 mg/kg/injection, schedule: Q01DX009 (ip), vehicle: saline 104 % of control | dose: 25.0 mg/kg/injection, schedule: Q04DX003 (ip), vehicle: Klucel (hydroxypropylcellulose) (HPC) 102 % of control | dose: 50.0 mg/kg/injection, schedule: Q01DX009 (ip), vehicle: other 95 % of control | dose: 50.0 mg/kg/injection, schedule: Q01DX009 (ip), vehicle: saline 105 % of control | dose: 50.0 mg/kg/injection, schedule: Q04DX003 (ip), vehicle: Klucel (hydroxypropylcellulose) (HPC) 101 % of control | dose: 100.0 mg/kg/injection, schedule: Q01DX001 (ip), vehicle: Klucel (hydroxypropylcellulose) (HPC) 101 % of control | [1] 104 % of control

CCCCCCC(=O)N(CC)C(=NCC)c1ccc(NC(=O)c2ccc(C(=O)Nc3ccc(C(=NCC)N(CC)C(=O)CCCCCC)cc3)cc2)cc1
inactive: dose: 3.75 mg/kg/injection, schedule: Q01DX015 (ip), vehicle: methylcellulose (MC) 98 % of control | dose: 7.5 mg/kg/injection, schedule: Q01DX015 (ip), vehicle: methylcellulose (MC) 101 % of control | dose: 15.0 mg/kg/injection, schedule: Q01DX015 (ip), vehicle: methylcellulose (MC) 98 % of control | dose: 30.0 mg/kg/injection, schedule: Q01DX015 (ip), vehicle: methylcellulose (MC) 90 % of control | dose: 62.0 mg/kg/injection, schedule: Q01DX015 (ip), vehicle: methylcellulose (MC) 93 % of control | dose: 125.0 mg/kg/injection, schedule: Q01DX015 (ip), vehicle: methylcellulose (MC) 90 % of control | dose: 250.0 mg/kg/injection, schedule: Q01DX015 (ip), vehicle: methylcellulose (MC) 87 % of control | dose: 500.0 mg/kg/injection, schedule: Q01DX015 (ip), vehicle: methylcellulose (MC) 86 % of control

c1ccc(-c2ccc(-c3ccccc3)c(-c3ccc4c(c3)CCC4)c2-c2ccccc2)cc1
inactive: [11] 96 % of control | [12] 96 % of control | [8] 89 % of control

S=C(c1cccs1)N1CCOCC1
inactive: dose: 100.0 mg/kg/injection, schedule: Q04DX003 (ip), vehicle: gum acacia 93 % of control | dose: 200.0 mg/kg/injection, schedule: Q04DX003 (ip), vehicle: gum acacia 100 % of control | dose: 400.0 mg/kg/injection, schedule: Q04DX003 (ip), vehicle: gum acacia 91 % of control

Cc1cc(Cl)nc2ccc(Cc3ccc(Cl)cc3)cc12
inactive: [5] 97 % of control | [6] 92 % of control | [7] 93 % of control

NCC1C2CC3CC(C2)CC1C3 (stereo not given)
inactive: dose: 12.5 mg/kg/injection, schedule: Q01DX001 (ip), vehicle: saline 106 % of control | dose: 25.0 mg/kg/injection, schedule: Q01DX001 (ip), vehicle: saline 97 % of control | [4] 93 % of control | [9] 98 % of control | [10] 96 % of control

COc1cc(OC)c(NC(=O)c2ccccc2Cl)cc1Cl
inactive: dose: 100.0 mg/kg/injection, schedule: Q01DX009 (ip), vehicle: Klucel (hydroxypropylcellulose) (HPC) 92 % of control | dose: 200.0 mg/kg/injection, schedule: Q01DX009 (ip), vehicle: Klucel (hydroxypropylcellulose) (HPC) 90 % of control | dose: 400.0 mg/kg/injection, schedule: Q01DX009 (ip), vehicle: Klucel (hydroxypropylcellulose) (HPC) 93 % of control

O=c1/c(=C\c2ccc(Cl)c(Cl)c2)sc2n1CCN=2
inactive: [5] 86 % of control | [7] 93 % of control

COc1ccccc1C(C#N)NCCCNC(C#N)c1ccccc1OC (stereo not given)
inactive: dose: 10.0 mg/kg/injection, schedule: Q01DX001 (ip), vehicle: saline 89 % of control | dose: 20.0 mg/kg/injection, schedule: Q01DX001 (ip), vehicle: saline 110 % of control

CC12CC3CC(C)(C1)CC(N)(C3)C2
inactive: dose: 50.0 mg/kg/injection, schedule: Q01DX001 (ip), vehicle: carboxymethylcellulose (CMC) 98 % of control

NC(N)=N/N=C/c1cc([N+](=O)[O-])ccc1OCC(=O)O
inactive: dose: 60.0 mg/kg/injection, schedule: Q01DX Z (oral), vehicle: methylcellulose (MC) 98 % of control | dose: 120.0 mg/kg/injection, schedule: Q01DX Z (oral), vehicle: methylcellulose (MC) 98 % of control | dose: 240.0 mg/kg/injection, schedule: Q01DX Z (ip), vehicle: methylcellulose (MC) 95 % of control | dose: 240.0 mg/kg/injection, schedule: Q01DX Z (oral), vehicle: methylcellulose (MC) 115 % of control | dose: 360.0 mg/kg/injection, schedule: Q01DX Z (ip), vehicle: methylcellulose (MC) 93 % of control | dose: 480.0 mg/kg/injection, schedule: Q01DX Z (ip), vehicle: methylcellulose (MC) 100 % of control | dose: 480.0 mg/kg/injection, schedule: Q01DX Z (oral), vehicle: methylcellulose (MC) 102 % of control

CCOC(CCC#N)c1ccccc1 (stereo not given)
inactive: [11] 95 % of control | dose: 125.0 mg/kg/injection, schedule: Q01DX009 (ip), vehicle: saline with Tween-80 113 % of control | [12] 98 % of control | dose: 235.0 mg/kg/injection, schedule: Q01DX009 (ip), vehicle: saline with Tween-80 96 % of control | [8] 92 % of control

Cc1ccc(Nc2nc(N)nc(N)c2N=O)cc1C
inactive: dose: 100.0 mg/kg/injection, schedule: Q01DX Z (ip), vehicle: methylcellulose (MC) 116 % of control | dose: 200.0 mg/kg/injection, schedule: Q01DX001 (ip), vehicle: Klucel (hydroxypropylcellulose) (HPC) 106 % of control | dose: 200.0 mg/kg/injection, schedule: Q01DX Z (ip), vehicle: methylcellulose (MC) 98 % of control

CCCCCCCCCCCCCCCC(=O)OCCCCCCCCCCCCC
inactive: [11] 95 % of control | [12] 90 % of control | [8] 86 % of control

CCOCCN=Cc1c[nH]c2ccccc12
inactive: [1] 98 % of control | [2] 95 % of control | [3] 98 % of control

O=C(O)c1ccc(/C=N/NC(=O)c2cccc3ccccc23)cc1
inactive: [5] 87 % of control | [6] 87 % of control

CC(C)CC(=O)Nc1ccc(S(=O)(=O)NCC(C)(C)O)cc1
inactive: [11] 98 % of control | [12] 98 % of control | [8] 95 % of control
